# Patent publication US4250259A, “Microbiological production of ketones from C3 -C6 secondary alcohols” (priority 1979, dated 1981)
# Where two headings read alike, the source gives them in different places.
# Legend:
# [1] = system: secondary alcohol dehydrogenase (SADH), cell-free soluble extract; conditions: Growth Substrate CH3 OH
# Procedure: (§1) To prepare the cell-free secondary alcohol dehydrogenase (SADH) system, the washed cells were disrupted with a Wave Energy Ultrasonic Oscillator, Model W201 (Wave Energy System, Inc., Newtown, Pa.) and centrifuged at 20,000×g. for 30 minutes. […] The enzyme activity was measured with a fluorescence spectrophotometer (Perkin Elmer, Model MPF 44A) by following the formation of reduced NAD (EX 340 nm, Em 460 nm). The formation of reduced NAD was also followed with an absorption spectrophotometer at 340 nm. The assay system (3 ml.) contained: potassium phosphate buffer pH 7.0; 150 μmol.; NAD 1 μmol.; a given amount of enzyme preparation; and secondary alcohol 10 μmol. The reaction was started by the addition of substrate. One unit of enzyme activity represents the reduction of one μmole NAD per minute. Protein concentrations were determined by the Lowry method (J. Biol. Chem., 193: 255-275 (1951)).
# (§2) The experimental procedure for the tests reported in Table VIII were as follows: 1 mg protein of crude extract was added into a 0.5 ml. 0.05 M phosphate buffer (pH 7.0) in a 10-ml. vial. […] The reaction mixture was incubated at 30° C. on a water bath. A 3 μl sample was removed with a syringe at 15 min. of incubation and was assayed with g.l.c. Catalytic activity was also assayed by fluorescence spectrophotometry.
# [2] = system: secondary alcohol dehydrogenase (SADH), cell-free soluble extract; conditions: Growth Substrate CH4
# Procedure: as §1, §2
# [3] = system: secondary alcohol dehydrogenase (SADH), cell-free soluble extract; conditions: Growth Substrate CH3 OH; remark: listed apart in the source
# Procedure: as §1, §2
# [4] = system: secondary alcohol dehydrogenase (SADH), cell-free soluble extract; conditions: Growth Substrate CH4; remark: listed apart in the source
# Procedure: as §1, §2
# [5] = system: secondary alcohol dehydrogenase, crude extracts; conditions: 2-butanol as a substrate; extracts of methanol-grown yeast
# Procedure: (§3) Cell suspensions (2 g. wet weight) of packed cells in 10 ml. of 50 mM sodium phosphate buffer, pH 7.0 at 4° C. were disrupted by sonication with a Megason ultrasonic disintegration. The sonicated cell suspensions were centrifuged for 15 minutes at 30,000×g. The supernantant liquid was termed the crude extracts.
# (§4) Secondary alcohol dehydrogenase activity was measured spectrophotometrically at 340 nm with a NAD^+ as an electron acceptor. The reaction mixture, in a total 3.0 ml., contained 50 mM phosphate buffer, pH 8.0, 5 μmoles NAD^+, crude extracts, and substrate. The reactions were started by addition of 100 μl of 0.1 M substrate and the rate of NAD^+ reduction was measured. Protein concentration was determined by the method of Lowry et al.
# (§5) Oxidation of secondary alcohols were also estimated spectrophotometrically by measuring the reduction of NAD^+. […] NRRL Y-11,328 Torulopsis sp.
# [6] = system: secondary alcohol dehydrogenase (SADH), cell-free soluble extract
# Procedure: as §1, §2
# [7] = system: secondary alcohol dehydrogenase, crude extracts; conditions: 2-butanol as a substrate; extracts of methanol-grown yeast; remark: listed apart in the source
# Procedure: as §3, §4, §5
# [8] = system: Hansenula anomala NRRL Y-336; conditions: cell suspensions
# Procedure: (§6) The cells were harvested during exponential growth by centrifugation at 12,000×g. for 15 min. The cell pellet was washed twice with 50 mM phosphate buffer, pH 7. The final pellet was resuspended in the same buffer. Cell suspensions of yeasts grown on ethanol, methylamine, and methylformate were prepared as described above using 0.4 v/v ethanol, 10 mM methylamine and 10 mM methylformate as the sole source of carbon and energy.
# (§7) A 1 ml. aliquot of each washed cell suspension of yeasts grown on various carbon sources was put into 10 ml. vials at 40° C. […] The vials were then incubated at 30° C. on a rotary water bath shaker at 200 rpm. The product of oxidation of secondary alcohols was detected by gas chromatography retention time comparison and co-chromatography with authentic standard.
# [9] = system: Pichia pastoris NRRL Y-55; conditions: cell suspensions
# Procedure: as §6, §7
# [10] = system: Candida boidinii NRRL Y-2332; conditions: cell suspensions
# Procedure: as §6, §7
# [11] = system: secondary alcohol dehydrogenase, crude extracts; conditions: 2-butanol as a substrate; extracts of methanol-grown yeast; remark: listed apart in the source
# Procedure: as §3, §4, §5
# [12] = system: secondary alcohol dehydrogenase (SADH), cell-free soluble extract; conditions: Growth Substrate CH4; remark: listed apart in the source
# Procedure: as §1, §2
# [13] = system: secondary alcohol dehydrogenase (SADH), cell-free soluble extract; conditions: Growth Substrate CH3 OH; remark: listed apart in the source
# Procedure: as §1, §2
# [14] = system: secondary alcohol dehydrogenase (SADH), cell-free soluble extract; conditions: Growth Substrate CH4; remark: listed apart in the source
# Procedure: as §1, §2
# [15] = system: secondary alcohol dehydrogenase (SADH), cell-free soluble extract; conditions: Growth Substrate CH4; remark: listed apart in the source
# Procedure: as §1, §2
# [16] = system: cell-free extracts of strain ATCC 21439; assay: stoichiometry of production of 2-butanone from 2-butanol by cell-free extracts (Table IX); type: biochemical, Pseudomonas sp. ATCC 21,439; conditions: 30° C., 1.0 mg protein, 1.0 μmoles NAD, 10 μmoles 2-butanol
# Procedure: The reaction mixtures 3 ml (1.0 mg protein) were incubated at 30°
# ^(a) Determined gas chromatographically.
# ^(b) Determined fluorescence spectrophotometrically.
# consumption of NAD was corrected.
# [17] = system: secondary alcohol dehydrogenase (SADH), cell-free soluble extract; conditions: Growth Substrate CH3 OH; remark: listed apart in the source
# Procedure: as §1, §2
# [18] = system: secondary alcohol dehydrogenase (SADH), cell-free soluble extract; conditions: Growth Substrate CH3 OH; remark: listed apart in the source
# Procedure: as §1, §2
# [19] = system: secondary alcohol dehydrogenase (SADH), cell-free soluble extract; conditions: Growth Substrate CH4; remark: listed apart in the source
# Procedure: as §1, §2
# [20] = system: secondary alcohol dehydrogenase (SADH), cell-free soluble extract; conditions: Growth Substrate CH4; remark: listed apart in the source
# Procedure: as §1, §2
# [21] = system: secondary alcohol dehydrogenase (SADH), cell-free soluble extract; conditions: Growth Substrate CH3 OH; remark: listed apart in the source
# Procedure: as §1, §2
# [22] = system: secondary alcohol dehydrogenase, crude extracts; conditions: 2-butanol as a substrate; extracts of methanol-grown yeast; remark: listed apart in the source
# Procedure: as §3, §4, §5
# [23] = system: secondary alcohol dehydrogenase (SADH), cell-free soluble extract; remark: listed apart in the source
# Procedure: as §1, §2
# [24] = system: secondary alcohol dehydrogenase (SADH), cell-free soluble extract; conditions: Growth Substrate CH3 OH; remark: listed apart in the source
# Procedure: as §1, §2
# [25] = system: secondary alcohol dehydrogenase (SADH), cell-free soluble extract; conditions: Growth Substrate CH3 OH; remark: listed apart in the source
# Procedure: as §1, §2
# [26] = system: secondary alcohol dehydrogenase (SADH), cell-free soluble extract; conditions: Growth Substrate CH3 OH; remark: listed apart in the source
# Procedure: as §1, §2
structure (smiles),measurement,setting,value
"CCC(C)O (stereo not drawn) [2-Butanol, 2-butanol]","Conversion Rate, 2-butanol to 2-butanone",[1],1.5 nmoles/min/mg protein
same,"Conversion Rate, 2-butanol to 2-butanone",[2],1.2 nmoles/min/mg protein
same,"Conversion Rate, 2-butanol to 2-butanone",[3],2.0 nmoles/min/mg protein
same,"Conversion Rate, 2-butanol to 2-butanone",[4],1.4 nmoles/min/mg protein
same,specific activities,[5],62 nmoles NAD^+ reduced per min. per mg. protein
same,"Conversion Rate, 2-butanol to 2-butanone",[6]; Growth Substrate CH3 OH,2.0 nmoles/min/mg protein
same,"Conversion Rate, 2-butanol to 2-butanone",[6]; Growth Substrate CH4,1.5 nmoles/min/mg protein
same,specific activities,[7],85 nmoles NAD^+ reduced per min. per mg. protein
same,"conversion rates, 2-butanol to 2-butanone",[8],5.5 μ moles/hr/mg. protein
same,"conversion rates, 2-butanol to 2-butanone",[9],5.8 μ moles/hr/mg. protein
same,"conversion rates, 2-butanol to 2-butanone",[10],6.0 μ moles/hr/mg. protein
same,specific activities,[11],105 nmoles NAD^+ reduced per min. per mg. protein
same,"Conversion Rate, 2-butanol to 2-butanone",[12],2.5 nmoles/min/mg protein
same,"Conversion Rate, 2-butanol to 2-butanone",[13],1.8 nmoles/min/mg protein
same,"Conversion Rate, 2-butanol to 2-butanone",[14],0.5 nmoles/min/mg protein
same,"Conversion Rate, 2-butanol to 2-butanone",[15],1.8 nmoles/min/mg protein
same,2-Butanol Consumed,[16]; Experiment 1: 10 min.,260 nmol
same,2-Butanol Consumed,[16]; Experiment 2: 20 min.,530 nmol
same,"Conversion Rate, 2-butanol to 2-butanone",[17],2.4 nmoles/min/mg protein
same,"Conversion Rate, 2-butanol to 2-butanone",[18],3.0 nmoles/min/mg protein
same,"Conversion Rate, 2-butanol to 2-butanone",[19],2.6 nmoles/min/mg protein
same,"Conversion Rate, 2-butanol to 2-butanone",[20],0.8 nmoles/min/mg protein
same,"Conversion Rate, 2-butanol to 2-butanone",[21],5.0 nmoles/min/mg protein
same,specific activities,[22],78 nmoles NAD^+ reduced per min. per mg. protein
same,"Conversion Rate, 2-butanol to 2-butanone",[23]; Growth Substrate CH3 NH2,20.0 nmoles/min/mg protein
same,"Conversion Rate, 2-butanol to 2-butanone",[23]; Growth Substrate CH3 OH,23.2 nmoles/min/mg protein
same,"Conversion Rate, 2-butanol to 2-butanone",[23]; Growth Substrate HCOOCH3,16.0 nmoles/min/mg protein
same,"Conversion Rate, 2-butanol to 2-butanone",[24],2.2 nmoles/min/mg protein
same,"Conversion Rate, 2-butanol to 2-butanone",[25],1.6 nmoles/min/mg protein
same,"Conversion Rate, 2-butanol to 2-butanone",[26],15.0 nmoles/min/mg protein
